Measurements from US7601838B2, “2-Alkyl/aryl sulphonyl-1,2,3,4-tetrahydro-9H-pyrido (3,4-b) indole-3-carboxylic acid esters/amides useful as antithrombotic agents” (Council of Scientific and Industrial Research, priority 2004, dated 2009).

What was measured:
[1] = tested on: collagen and epinephrine induced thrombosis in mice; assay: Effect on mouse thrombosis: collagen and adrenaline induced pulmonary thromboembolism; format: in vivo; details: for protection against collagen and epinephrine induced thrombosis (in words): 30 μM/kg
Protocol: Pulmonary thromboembolism was induced by following a method of Diminno and Silver^(1). Test compounds (30 μM/Kg) or vehicle were administered orally 60 min prior to the thrombotic challenge. A mixture of collagen (150 μg/ml) and adrenaline (50 μg/mL) was administered by the rapid intravenous injection into the tail vein to induce hind limb paralysis or death. A group of 10 animals were used to evaluate the effect of test compound, while 5 mice were used to assess effect of a standard drug, aspirin and a group of vehicle treated (n=5) mice was also used each experiment.
% Protection was expressed as: […]
Ptest is the number of animals paralyzed/dead in the test compound-treated group, and Pcontrol is the number of animals paralyzed/dead in vehicle treated group.

[2] = tested on: stasis induced thrombosis in LPS treated rabbits; assay: Rabbit venous thrombosis model (stasis induced thrombosis in LPS treated rabbits); format: in vivo, New Zealand white strain rabbits
Protocol: (§1) [formula] 1.4 Evaluation of coagulation parameters: Blood was collected by cardiac puncture from ether-anaesthetized rat using a syringe containing 3.2% tri-sodium citrate (9:1, v/v). Plasma was obtained by centrifugation of citrated blood at 2500×g for 15 min at 20° C. Stock solutions of the test compounds were prepared freshly in DMSO and were diluted in DMSO. Thrombin time (TT), prothrombin time (PT) and activated partial thromboplastin time (aPTT) were evaluated according to manufacturer's instructions supplied with kits (Stago, France) and measured by Coagulometer (Stago, France)^(4). In each set of experiment effect of DMSO on these parameters was also assessed and was used to calculate change in TT, PT or aPTT. 1.5 Rabbit venous thrombosis model: Experiments were performed on New Zealand white strain rabbits (2-3 kg) either sex. Escherichia coli LPS strain 1055:B5 (Sigma Chemicals, USA) was injected intravenously via ear vein (1 μg/kg)^(5,6). Jugular veins on both sides were exposed and dissected free from surrounding tissue. Two loose surer were placed 1.5 cm apart and all collateral veins were ligated. Four hours after E. coli endotoxin injection (animal is watched for any signs of hypersensitivity reaction during this period), stasis was established and maintained for 45 min by tightening the two sutures. Ligated segments were removed and opened longitudinally and the thrombus was carefully removed and weighed. Heparin sodium (Beparine from beef intestinal mucosa ≧140 USP units/mg; Biological E. Limited, India) was given in doses of (0.5, 0.25, 0.1 mg/kg i.v., via ear vein) 5 min before stasis. 1.6 Effect of compound (i) on human platelet aggregation in vitro: Platelet aggregation study was done on human platelets following isolation of PRP from the human blood as described above (1.3). Aggregation was induced by collagen (10 μg/ml, 5 μg/ml), ADP (10 μM) and thrombin (0.5 U/ml). 2. Results: Effect of test compounds is indicated in the following table (1) against collagen and epinephrine induced thrombosis in mice, which is a primary screening model to detect antithrombotic efficacy of the test agents. At the same dose these compounds were also evaluated for their effect on the bleeding time in mouse (Table 1).
(§2) Effect on venous thrombosis model in rabbit: The selected compounds were evaluated at 10 μM/Kg and 30 μM/kg dose for their efficacy against stasis induced thrombosis in LPS treated rabbits. […] Ex vivo effect of selective compounds on rat platelet aggregation: Blood was collected in sodium citrate to obtain PRP and evaluate the ex vivo effect of selective compounds ((i), (ii), (iii) at 30 μM/kg administered by the ip route) against ADP, collagen, phorbol myristate ester (PMA) calcium ionophore (A23187), or thrombin induced aggregation. It was observed that all these compounds were consistent against collagen-induced platelet aggregation (Table 3). (iii) inhibited ADP (10 μM), collagen (10 μg/ml), PMA (1.5 μM), and thrombin (0.64 U/ml) induced platelet aggregation while no inhibition was found against calcium ionophore A23187 (2.5 μg/ml) induced platelet aggregation. […] Effect on clotting parameters: The selected compounds were also tested in vitro for their effect on thrombin time (TT), prothrombin time (PT) and activated partial thromboplastin time (aPTT) at 100 μg/ml and 200 μg/ml in vitro (Table 4). The test compounds at 100 μg/ml had no significant effect of on these parameters. Some effect was though seen on PT at 200 μg/ml concentration, but the concentration seems to be quite high.
Values are Mean±; Compound (i); n=2, Compound (ii); n=4, Compound (iii), n=4 [n is no. of observations in 2 or more animals at 10 μM/Kg or 30 μM/Kg p.o. administered 2 h prior to the stasis] or vehicle control [n=10 observations in five animals]. In heparin treated group n=6 observations for each dose in nine animals.

rat platelet aggregation = assay: Ex vivo effect on rat platelet aggregation (PRP, aggregometer); format: cell-based, Sprague Dawley rats; details: 30 μM/kg ip; for % Aggregation / % Inhibition: rat PRP; for inhibition of calcium ionophore A23187 induced platelet aggregation (in words): A23187 (2.5 μg/ml); for inhibition of calcium ionophore A23187 induced platelet aggregation (in words) / inhibition of ADP induced platelet aggregation (in words) / inhibition of PMA induced platelet aggregation (in words) / inhibition of collagen induced platelet aggregation (in words) / inhibition of thrombin induced platelet aggregation (in words): rat; for inhibition of ADP induced platelet aggregation (in words): ADP (10 μM); for inhibition of PMA induced platelet aggregation (in words): PMA (1.5 μM); for inhibition of collagen induced platelet aggregation (in words): collagen (10 μg/ml); for inhibition of thrombin induced platelet aggregation (in words): thrombin (0.64 U/ml)
Protocol: Sodium citrate: The blood was centrifuged at 275×g for 20 min and the platelet rich plasma (PRP) was collect. The remaining blood was further centrifuged at 1500 g for 15 min at 20° C. to obtain platelet poor plasma (PPP). The platelet count in the PRP was adjusted to 2×10^8 cells/ml by using PPP. Adenosine-5′-diphosphate (ADP), thrombin, collagen, calcium ionophore A23187 or phorbol myristate ester (PMA) induced aggregation was monitored on a dual channel aggregometer (Chrono-log, USA). The test compound was incubated with PRP or 5 min before the addition of aggregation on inducing agent. Percent inhibition of the test compounds at various concentrations was calculated as follows: […]
as §2

[3] = tested on: thrombin time (TT), prothrombin time (PT) and activated partial thromboplastin time (aPTT); assay: Evaluation of coagulation parameters (TT, PT, aPTT) in rat plasma in vitro; format: biochemical
Protocol: as §1, §2

mouse-tail Bleeding time = assay: Effect on mouse-tail bleeding time; details: mice
Protocol: The tail 2 mm from tip was incised and the blood oozed was soaked with filter paper till the bleeding stops. The time elapsed from the tip incision to the stoppage of bleeding was determined as the bleeding time. Test compound (30 μM/kg), aspirin or vehicle was given orally 60 min prior to the tail incision. Each group consisted of 5 mice.

[4] = 30 μM/kg orally 60 min prior to collagen + adrenaline challenge
[5] = 30 μM/Kg dose p.o. 2 h prior to the stasis
[6] = 10 μM/Kg dose p.o. 2 h prior to the stasis

| SMILES | protection against collagen and epinephrine induced thrombosis (in words) [1] | Antithrombotic activity (AT) (% protection) [1, 4] | % Reduction (thrombus wt.) [2, 5] [%] | Thrombus wt. [2, 5] | % Aggregation (rat platelet aggregation; A23187 (2.5 μg/ml) induced) [%] | % Inhibition (rat platelet aggregation; A23187 (2.5 μg/ml) induced) [%] | inhibition of calcium ionophore A23187 induced platelet aggregation (in words) (rat platelet aggregation) | % Aggregation (rat platelet aggregation; ADP (10 μM) induced) [%] | % Inhibition (rat platelet aggregation; ADP (10 μM) induced) [%] | inhibition of ADP induced platelet aggregation (in words) (rat platelet aggregation) | % Aggregation (rat platelet aggregation; Collagen (10 μg/ml) induced) [%] | % Inhibition (rat platelet aggregation; Collagen (10 μg/ml) induced) [%] | % Aggregation (rat platelet aggregation; PMA (1.5 μM) induced) [%] | % Inhibition (rat platelet aggregation; PMA (1.5 μM) induced) [%] | inhibition of PMA induced platelet aggregation (in words) (rat platelet aggregation) | % Aggregation (rat platelet aggregation; Thrombin (0.64 U/ml) induced) [%] | % Inhibition (rat platelet aggregation; Thrombin (0.64 U/ml) induced) [%] | inhibition of collagen induced platelet aggregation (in words) (rat platelet aggregation) | inhibition of thrombin induced platelet aggregation (in words) (rat platelet aggregation) | Activated partial thromboplastin time (aPTT) % Change ([3]; 100 μg/ml in vitro) [%] | other results |
| --- | --- | --- | --- | --- | --- | --- | --- | --- | --- | --- | --- | --- | --- | --- | --- | --- | --- | --- | --- | --- | --- |
| NC(=O)C1Cc2c([nH]c3ccccc23)CN1S(=O)(=O)c1ccc2ccccc2c1 (centres unmarked) [Compound (iii), 2-[2-naphthalenesulfonyl]-1,2,3,4,-tetrahydro-9H-pyrido[3,4-b]indole-3-carboxylic acid amide] | exhibited significant protection | 70 ± 0 (n = 3) % | 57 | 11 ± 5 | 57 ± 6 | −25 ± 2 | no inhibition | 2 ± 0.4 | 94 ± 0.2 | inhibited | 2.5 ± 0 | 47 ± 13 | 38 ± 13 | 32 ± 5 | inhibited | 28 ± 3 | 40 ± 6 | inhibited | inhibited | 11 ± 4 | Prothrombin time (PT) % Change ([3]; 100 μg/ml in vitro): −0.24 ± 0.8%; Thrombin time (TT) % Change ([3]; 100 μg/ml in vitro): 10 ± 4%; Activated partial thromboplastin time (aPTT) % Change ([3]; 200 μg/ml in vitro): 10 ± 8%; Prothrombin time (PT) % Change ([3]; 200 μg/ml in vitro): 9 ± 0.2%; Thrombin time (TT) % Change ([3]; 200 μg/ml in vitro): 6 ± 1% |
| CC(=O)Oc1ccccc1C(=O)O [Aspirin, reference compound] |  |  |  |  |  |  |  |  |  |  |  |  |  |  |  |  |  |  |  |  | Antithrombotic activity (AT) (% protection) ([1]; 30 mg/Kg (aspirin, standard drug)): 38 ± 3 (n = 24) %; Bleeding time (BT) % increase (1 hr) (mouse-tail Bleeding time; 30 mg/Kg (aspirin)): 125 ± 6 (n = 30) % |
| COC(=O)C1Cc2c([nH]c3ccccc23)CN1S(=O)(=O)c1ccccc1C(F)(F)F (racemic) [j, 2[2-trifluoromethylbenzenesulfonyl]-1,2,3,4,-tetrahydro-9H-pyrido[3,4-b]in-dole-3-carboxylic acid ester] |  | 56% |  |  |  |  |  |  |  |  |  |  |  |  |  |  |  |  |  |  | Bleeding time (BT) % increase (1 hr) (mouse-tail Bleeding time; 30 μM/kg orally 60 min prior to tail incision): 150% |
| COc1ccc(S(=O)(=O)N2Cc3[nH]c4ccccc4c3CC2C(N)=O)cc1 (centres unmarked) [Compound (ii), 2[-4-methoxybenzenesulfonyl]-1,2,3,4,-tetrahydro-9H-pyrido[3,4-b]indole-3-carboxylic acid amide] | exhibited significant protection | 70 ± 10 (n = 3) % | 88 | 5 ± 4 | 51 ± 5 | 54 ± 4 | inhibited | 35 ± 5 | 26 ± 10 | inhibited | 5 ± 1 | 79 ± 7 | 44 ± 12 | 26 ± 0.3 | inhibited | 44 ± 10 | 4 ± 10 | inhibited | did not inhibit | 13 ± 7 | % Reduction (thrombus wt.) [2, 6]: −67%; Thrombus wt. [2, 6]: 79 ± 9; Prothrombin time (PT) % Change ([3]; 100 μg/ml in vitro): 9 ± 5%; Thrombin time (TT) % Change ([3]; 100 μg/ml in vitro): 9 ± 5%; Activated partial thromboplastin time (aPTT) % Change ([3]; 200 μg/ml in vitro): 11 ± 4%; Prothrombin time (PT) % Change ([3]; 200 μg/ml in vitro): 14 ± 7%; Thrombin time (TT) % Change ([3]; 200 μg/ml in vitro): 9 ± 4% |
